Experimental data as given in the supplement of paper PMC10307832.

Columns and labels:
Test in all cases: relative viability (nuclei count vs DMSO), 5 days (fraction); higher = more cells survive
PC-14 = tested on: PC-14
Outline: (§1)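 Cells from lung cancer lines were seeded into 1536-well plates and, one day later, dosed by pin tool. Treatments were either a single drug or a fixed dose of an anchor drug with five library-drug doses (not always all listed) in √10 steps. After 5 days, nuclei were stained in a one-step fixation (final 0.05% Triton X-100, 1% formaldehyde, 1 ug/ml Hoechst) and counted on 4× images, and relative viability is the treated-to-vehicle nuclei ratio, as the median of duplicate plates.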

NCI-H838 = tested on: NCI-H838
Outline: as §1

HCC-15 = tested on: HCC-15
Outline: as §1

UMC-11 = tested on: UMC-11
Outline: as §1

NCI-H1793 = tested on: NCI-H1793
Outline: as §1

NCI-H1355 = tested on: NCI-H1355
Outline: as §1

NCI-H2342 = tested on: NCI-H2342
Outline: as §1

NCI-H2170 = tested on: NCI-H2170
Outline: as §1

NCI-H647 = tested on: NCI-H647
Outline: as §1

COR-L23 = tested on: COR-L23
Outline: as §1

SK-MES-1 = tested on: SK-MES-1
Outline: as §1

COR-L 105 = tested on: COR-L 105
Outline: as §1

NCI-H2009 = tested on: NCI-H2009
Outline: as §1

NCI-H358 = tested on: NCI-H358
Outline: as §1

NCI-H1734 = tested on: NCI-H1734
Outline: as §1

HOP-62 = tested on: HOP-62
Outline: as §1

NCI-H1755 = tested on: NCI-H1755
Outline: as §1

NCI-H1395 = tested on: NCI-H1395
Outline: as §1

EKVX = tested on: EKVX
Outline: as §1

NCI-H1993 = tested on: NCI-H1993
Outline: as §1

NCI-H2347 = tested on: NCI-H2347
Outline: as §1

HARA = tested on: HARA
Outline: as §1

## CC1(C)CCC(c2ccc(Cl)cc2)=C(CN2CCN(c3ccc(C(=O)NS(=O)(=O)c4ccc(N[C@H](CCN5CCOCC5)CSc5ccccc5)c(S(=O)(=O)C(F)(F)F)c4)cc3)CC2)C1 [Navitoclax] + Nc1ncn([C@H]2C[C@H](O)[C@@H](CO)O2)c(=O)n1 [Decitabine] (partner 2 µM)
PC-14; first compound 0.005 µM
  relative viability: 0.237
PC-14; first compound 0.01581 µM
  relative viability: 0.2
PC-14; first compound 0.05 µM
  relative viability: 0.228
PC-14; first compound 0.1581 µM
  relative viability: 0.211
PC-14; first compound 0.5 µM
  relative viability: 0.19
NCI-H838; first compound 0.005 µM
  relative viability: 0.457
NCI-H838; first compound 0.01581 µM
  relative viability: 0.506
NCI-H838; first compound 0.05 µM
  relative viability: 0.47
NCI-H838; first compound 0.1581 µM
  relative viability: 0.423
NCI-H838; first compound 0.5 µM
  relative viability: 0.46
HCC-15; first compound 0.005 µM
  relative viability: 0.64
HCC-15; first compound 0.01581 µM
  relative viability: 0.652
HCC-15; first compound 0.05 µM
  relative viability: 0.386
HCC-15; first compound 0.1581 µM
  relative viability: 0.625
HCC-15; first compound 0.5 µM
  relative viability: 0.411
UMC-11; first compound 0.005 µM
  relative viability: 0.707
UMC-11; first compound 0.01581 µM
  relative viability: 0.635
UMC-11; first compound 0.05 µM
  relative viability: 0.616
UMC-11; first compound 0.1581 µM
  relative viability: 0.547
UMC-11; first compound 0.5 µM
  relative viability: 0.609
NCI-H1793; first compound 0.005 µM
  relative viability: 0.448
NCI-H1793; first compound 0.01581 µM
  relative viability: 0.595
NCI-H1793; first compound 0.1581 µM
  relative viability: 0.49
NCI-H1793; first compound 0.5 µM
  relative viability: 0.345
NCI-H1355; first compound 0.005 µM
  relative viability: 0.338
NCI-H1355; first compound 0.01581 µM
  relative viability: 0.372
NCI-H1355; first compound 0.05 µM
  relative viability: 0.369
NCI-H1355; first compound 0.1581 µM
  relative viability: 0.355
NCI-H1355; first compound 0.5 µM
  relative viability: 0.347
NCI-H2342; first compound 0.005 µM
  relative viability: 0.799
NCI-H2342; first compound 0.01581 µM
  relative viability: 0.764
NCI-H2342; first compound 0.05 µM
  relative viability: 0.653
NCI-H2342; first compound 0.1581 µM
  relative viability: 0.679
NCI-H2342; first compound 0.5 µM
  relative viability: 0.713
NCI-H2170; first compound 0.005 µM
  relative viability: 0.473
NCI-H2170; first compound 0.01581 µM
  relative viability: 0.484
NCI-H2170; first compound 0.05 µM
  relative viability: 0.475
NCI-H2170; first compound 0.1581 µM
  relative viability: 0.414
NCI-H2170; first compound 0.5 µM
  relative viability: 0.434
NCI-H647; first compound 0.005 µM
  relative viability: 0.403
NCI-H647; first compound 0.01581 µM
  relative viability: 0.413
NCI-H647; first compound 0.05 µM
  relative viability: 0.409
NCI-H647; first compound 0.1581 µM
  relative viability: 0.275
NCI-H647; first compound 0.5 µM
  relative viability: 0.32
COR-L23; first compound 0.005 µM
  relative viability: 0.428
COR-L23; first compound 0.01581 µM
  relative viability: 0.425
COR-L23; first compound 0.05 µM
  relative viability: 0.432
COR-L23; first compound 0.1581 µM
  relative viability: 0.428
COR-L23; first compound 0.5 µM
  relative viability: 0.437
SK-MES-1; first compound 0.005 µM
  relative viability: 0.371
SK-MES-1; first compound 0.01581 µM
  relative viability: 0.432
SK-MES-1; first compound 0.05 µM
  relative viability: 0.349
SK-MES-1; first compound 0.1581 µM
  relative viability: 0.344
SK-MES-1; first compound 0.5 µM
  relative viability: 0.372
COR-L 105; first compound 0.005 µM
  relative viability: 0.737
COR-L 105; first compound 0.01581 µM
  relative viability: 0.89
COR-L 105; first compound 0.05 µM
  relative viability: 0.6
COR-L 105; first compound 0.1581 µM
  relative viability: 0.662
COR-L 105; first compound 0.5 µM
  relative viability: 0.537
NCI-H2009; first compound 0.005 µM
  relative viability: 0.412
NCI-H2009; first compound 0.01581 µM
  relative viability: 0.441
NCI-H2009; first compound 0.05 µM
  relative viability: 0.382
NCI-H2009; first compound 0.1581 µM
  relative viability: 0.342
NCI-H2009; first compound 0.5 µM
  relative viability: 0.295
NCI-H358; first compound 0.005 µM
  relative viability: 0.234
NCI-H358; first compound 0.01581 µM
  relative viability: 0.225
NCI-H358; first compound 0.05 µM
  relative viability: 0.206
NCI-H358; first compound 0.1581 µM
  relative viability: 0.213
NCI-H358; first compound 0.5 µM
  relative viability: 0.187
NCI-H1734; first compound 0.005 µM
  relative viability: 0.51
NCI-H1734; first compound 0.01581 µM
  relative viability: 0.512
NCI-H1734; first compound 0.1581 µM
  relative viability: 0.5
NCI-H1734; first compound 0.5 µM
  relative viability: 0.465
HOP-62; first compound 0.005 µM
  relative viability: 0.22
HOP-62; first compound 0.01581 µM
  relative viability: 0.21
HOP-62; first compound 0.05 µM
  relative viability: 0.173
HOP-62; first compound 0.1581 µM
  relative viability: 0.191
HOP-62; first compound 0.5 µM
  relative viability: 0.205
NCI-H1755; first compound 0.005 µM
  relative viability: 0.664
NCI-H1755; first compound 0.01581 µM
  relative viability: 0.727
NCI-H1755; first compound 0.05 µM
  relative viability: 0.611
NCI-H1755; first compound 0.1581 µM
  relative viability: 0.677
NCI-H1755; first compound 0.5 µM
  relative viability: 0.697
NCI-H1395; first compound 0.005 µM
  relative viability: 0.706
NCI-H1395; first compound 0.01581 µM
  relative viability: 0.701
NCI-H1395; first compound 0.05 µM
  relative viability: 0.724
NCI-H1395; first compound 0.1581 µM
  relative viability: 0.713
NCI-H1395; first compound 0.5 µM
  relative viability: 0.699
EKVX; first compound 0.005 µM
  relative viability: 0.372
EKVX; first compound 0.01581 µM
  relative viability: 0.428
EKVX; first compound 0.05 µM
  relative viability: 0.361
EKVX; first compound 0.1581 µM
  relative viability: 0.285
EKVX; first compound 0.5 µM
  relative viability: 0.343
NCI-H1993; first compound 0.005 µM
  relative viability: 0.659
NCI-H1993; first compound 0.01581 µM
  relative viability: 0.751
NCI-H1993; first compound 0.05 µM
  relative viability: 0.62
NCI-H1993; first compound 0.1581 µM
  relative viability: 0.56
NCI-H1993; first compound 0.5 µM
  relative viability: 0.596
NCI-H2347; first compound 0.005 µM
  relative viability: 0.668
NCI-H2347; first compound 0.01581 µM
  relative viability: 0.551
NCI-H2347; first compound 0.05 µM
  relative viability: 0.574
NCI-H2347; first compound 0.1581 µM
  relative viability: 0.654
NCI-H2347; first compound 0.5 µM
  relative viability: 0.582
HARA; first compound 0.005 µM
  relative viability: 0.463
HARA; first compound 0.01581 µM
  relative viability: 0.736
HARA; first compound 0.05 µM
  relative viability: 0.414
HARA; first compound 0.1581 µM
  relative viability: 0.622
HARA; first compound 0.5 µM
  relative viability: 0.466
